This passage reports IC50 results from patent US12018023B2 (NERVIANO MEDICAL SCIENCES S.R.L., priority 2018, dated 2024).

One test has as its system HT-1080 (IDH1^R132C). Description: Cellular 2-HG production assay, HT-1080. Format: cell-based. The following applies: inhibition of 2HG production, 72 hr incubation, LC-MS/MS, read-out: HT1080 2-HG IC50. Here is the method: Cell lines HT-1080 (commercially available) and U87-MG-IDH1^R132H (obtained in analoy to the procedure reported in J. Mol. Neurosci 2013, 50, 165-71) are maintained in E-MEM 10% FCS and incubated at 37° C. in a humidified 5% CO2 atmosphere. Stably transfected U87-MG cell lines are also supplemented with 500 μg/mL G418.
Cells are seeded into 96 well black flat bottom plates at a density of 500 cells/well in 100 μL complete medium. After 24 hr the medium is replaced with 200 uL of fresh medium and compounds (dissolved into DMSO) are administrated to the cells using D300E Digital Dispenser (Tecan).
After 72 hr of incubation 100 uL from each well are collected and used for 2HG (R(−)-2-hydroxyglutarate) quantification.
Levels of 2-HG in cell culture media are determined by LC-MS/MS. Cell supernatants (100 μL/well) are treated with 1 M aqueous trichloroacetic acid containing 130 μM of the internal standard 2-HG-d3 (20 μL/well) in a 96-well plate.
The plates are sealed, mildly vortexed for 60 minutes, centrifuged at 4,000 RPM for 15 minutes, placed in a refrigerated autosampler taking care not to shake them, and aliquots of the upper part of the samples are directly injected in the chromatographic system. Calibration standards are obtained by ten fold dilution of aqueous 2-HG stock solutions with blank cell culture medium and denatured exactly in the same way as described above for samples. Samples and standards are assayed for 2-HG by reversed phase chromatography on a C18 column eluted with aqueous 0.15% formic acid and briefly washed with 90% methanol at the end of the run. 2-HG is determined by negative ion electrospray ionization with the internal standard method on a triple quadrupole mass spectrometer monitoring the MRM transitions 147>129 (2-HG) and 150>132 (2-HG-d3). 2-HG inhibition was calculated by comparing treated versus control data using Assay Explore (Symyx) software, with IC50 determined using a sigmoidal fitting algorithm.

The target of the next test is T1, IDH1^R132C (Homo sapiens, UniProt O75874, R132C).
T1 construct: purchased not specified
T1 sequence (O75874 whole entry R132C): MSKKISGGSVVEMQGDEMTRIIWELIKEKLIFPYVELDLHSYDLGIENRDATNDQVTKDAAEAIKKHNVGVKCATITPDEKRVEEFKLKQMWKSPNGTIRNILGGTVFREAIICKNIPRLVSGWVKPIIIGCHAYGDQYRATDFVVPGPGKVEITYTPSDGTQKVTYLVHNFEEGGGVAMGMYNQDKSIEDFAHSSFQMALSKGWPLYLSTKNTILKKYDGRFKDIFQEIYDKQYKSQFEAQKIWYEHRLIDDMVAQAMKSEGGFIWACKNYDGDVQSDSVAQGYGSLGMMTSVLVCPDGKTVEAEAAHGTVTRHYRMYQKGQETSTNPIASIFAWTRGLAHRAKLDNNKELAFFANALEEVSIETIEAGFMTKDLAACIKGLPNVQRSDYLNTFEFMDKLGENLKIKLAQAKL
Put plainly: NADPH depletion assay, IDH1 R132C. Format: biochemical. The method in brief: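 Fluorescence readout (Ex544/Em590) of NADPH left after diaphorase/resazurin addition. Alpha-ketoglutarate 0.14 mM final, enzyme 2 nM final; compound preincubation 15 min, then 60 min reaction, both at room temperature, pH 7.6 Tris buffer.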

Molecules are shown by their SMILES. Read-outs that look alike come from different tables or passages of the source.

As to `C=CC(=O)N1CCN(Cc2ccc([C@H](C)Nc3ncc4ccc(=O)n(CC)c4n3)cc2)C(C(C)C)C1` (stereo in doubt) [cpd 212, 2-{[(1S)-1-(4-{[(2S)-4-acryloyl-2-(propan-2-yl)piperazin-1-yl]methyl}phenyl)ethyl]amino}-8-ethylpyrido[2,3-d]pyrimidin-7(8H)-one], the figures for the IC50 in the test on HT-1080 (IDH1^R132C) and on IDH1^R132C were 53.1 nM and 61 nM, respectively.

For the compound `C#Cc1ccc(Cn2c(=O)ccc3cnc(N[C@@H](C)c4ccc(CN5CCN(C(=O)C=C)CC5)cc4)nc32)c(F)c1` [cpd 217, 2-{[(1S)-1-{4-[(4-acryloylpiperazin-1-yl)methyl]phenyl}ethyl]amino}-8-(4-ethynyl-2-fluorobenzyl)pyrido[2,3-d]pyrimidin-7(8H)-one], the IC50 (commonly the concentration needed to halve the response being measured) stood at 8.2 nM in the test on HT-1080 (IDH1^R132C) (Homo sapiens, HT-1080, 72 h) and 15 nM on IDH1^R132C.

On to `CC(C)n1c(=O)ccc2cnc(N[C@@H](C)c3ccc([C@H](CC4CC4)N4CCN(C(=O)CCCl)CC4)cc3)nc21` [cpd 242, 2-{[(1S)-1-(4-{(1S)-1-[4-(3-chloropropanoyl)piperazin-1-yl]-2-cyclopropylethyl}phenyl)ethyl]amino}-8-(propan-2-yl)pyrido[2,3-d]pyrimidin-7(8H)-one], for which the IC50 with HT-1080 (IDH1^R132C) (Homo sapiens, HT-1080, 72 h) turned out to be 4.5 nM; against IDH1^R132C, 10 nM.

In the case of `C=CC(=O)N1CCN(C(CC)c2ccc([C@H](C)Nc3ncc4ccc(=O)n(C5CC5)c4n3)cc2)CC1` (stereo partly drawn) [cpd 218, 2-{[(1S)-1-{4-[1-(4-acryloylpiperazin-1-yl)propyl]phenyl}ethyl]amino}-8-cyclopropylpyrido[2,3-d]pyrimidin-7(8H)-one], the IC50 was determined as 2.1 nM in the test on HT-1080 (IDH1^R132C) (Homo sapiens, HT-1080, 72 h) and 13 nM against IDH1^R132C.

With `C=CC(=O)N1CC[C@H](Oc2ccc([C@H](C)Nc3ncc4ccc(=O)n(CC)c4n3)cc2)C1` [cpd 224], the IC50 in the test with HT-1080 (IDH1^R132C) (Homo sapiens, HT-1080, 72 h) was found to be 1070 nM; against IDH1^R132C it was 1700 nM.

Consider `C=CC(=O)N1CCN(C(CC)c2ccc([C@H](C)Nc3ncc4ccc(=O)n(C)c4n3)cc2)CC1` (stereo partly drawn) [cpd 215, 2-{[(1S)-1-{4-[1-(4-acryloylpiperazin-1-yl)propyl]phenyl}ethyl]amino}-8-methylpyrido[2,3-d]pyrimidin-7(8H)-one], for which the IC50 came to 2.3 nM in the test with HT-1080 (IDH1^R132C) (Homo sapiens, HT-1080, 72 h) and 4 nM on IDH1^R132C.

Take `C/C=C/C(=O)N1CCN(C(CC)c2ccc([C@H](C)Nc3ncc4ccc(=O)n(C(C)C)c4n3)cc2)CC1` (stereo partly drawn) [cpd 222, 2-({(1S)-1-[4-(1-{4-[(2E)-but-2-enoyl]piperazin-1-yl}propyl)phenyl]ethyl}amino)-8-(propan-2-yl)pyrido[2,3-d]pyrimidin-7(8H)-one]: the IC50 in the test with HT-1080 (IDH1^R132C) (Homo sapiens, HT-1080, 72 h) worked out at 168 nM; at IDH1^R132C, 147 nM.

For `C=CC(=O)N1CCN(Cc2ccc([C@H](C)Nc3ncc4ccc(=O)n(CC)c4n3)cc2)[C@H](C(C)C)C1` [cpd 209, 2-{[(1S)-1-(4-{[(2R)-4-acryloyl-2-(propan-2-yl)piperazin-1-yl]methyl}phenyl)ethyl]amino}-8-ethylpyrido[2,3-d]pyrimidin-7(8H)-one], the IC50 with HT-1080 (IDH1^R132C) (Homo sapiens, HT-1080, 72 h) is 30.2 nM; against IDH1^R132C, 46 nM.

Regarding `C=CC(=O)N1CCN(C(CC)c2ccc([C@H](C)Nc3ncc4ccc(=O)n(Cc5c(F)cccc5F)c4n3)cc2)CC1` (stereo partly drawn) [cpd 216, 2-{[(1S)-1-{4-[1-(4-acryloylpiperazin-1-yl)propyl]phenyl}ethyl]amino}-8-(2,6-difluorobenzyl)pyrido[2,3-d]pyrimidin-7(8H)-one], the IC50 in the test with HT-1080 (IDH1^R132C) (Homo sapiens, HT-1080, 72 h) was found to be 1.1 nM; on IDH1^R132C, 1 nM.

`C=C(C)C(=O)N1CCN(C(CC)c2ccc([C@H](C)Nc3ncc4ccc(=O)n(C(C)C)c4n3)cc2)CC1` (stereo partly drawn) [cpd 221, 2-{[(1S)-1-(4-{1-[4-(2-methylacryloyl)piperazin-1-yl]propyl}phenyl)ethyl]amino}-8-(propan-2-yl)pyrido[2,3-d]pyrimidin-7(8H)-one]: the IC50 was determined as 142 nM in the test with HT-1080 (IDH1^R132C) (Homo sapiens, HT-1080, 72 h) and 68 nM at IDH1^R132C.
